The test system of test [1] is human prostate cancer LNCaP cells. Description: Cytotoxic action on LNCaP cells (WST-8, 96 hr). The class given is cell-based. As to conditions: 96 hr culture. The procedure: The cytotoxic action of the compound of the present invention against human cancer cells was evaluated in vitro. In this experiment, (+)-JQ1 (Nature volume 468, pages 1067-1073 (23 Dec. 2010)) known to have an inhibitory activity on the binding of BRD4 protein and a ligand therefor was used as a positive control drug. Respective cells were suspended in 10% FBS/RPMI1640, seeded in a 96 well plate and cultured at 5% CO2, 37° C. overnight. A test compound dissolved in DMSO was diluted with 10% FBS/RPMI1640 and added and the cells were further cultured for 96 hr. After culturing, the viable cell number was measured using a cell number measurement WST-8 kit (Kishida Chemical Co., Ltd.). As a control, the measurement was performed under conditions free of the test compound. The cytotoxic activity of the compound of the present invention against human prostate cancer LNCaP cells is shown in IC50 value in Table 1. The IC50 value is a concentration of the compound showing 50% cell survival rate when the cell survival rate thereof under compound untreated condition is 100%. It was calculated from the straight line connecting the cell survival rate at two points enclosing the 50% cell survival rate and the compound concentration. In addition, the cytotoxic activity against respective cancer cells of human acute myeloid leukemia MV-4-11 cell, human chronic myeloid leukemia K562 cell, human multiple myeloma MM.1S cell, human diffuse large B-cell lymphoma SU-DHL-6 cell, human T-cell leukemia Jurkat cells, human Burkitt lymphoma Raji cell, human castration-resistant prostate cancer PC-3 cell, human AR-V7 positive castration-resistant prostate cancer 22Rv1 cell, human ovarian cancer A2780 cell, human cisplatin-resistant ovarian cancer SK-OV-03 cell, human bladder cancer 5637 cell, human breast cancer ZR-75-1 cell, human triple negative breast cancer MDA-MB-231 cell, human uterus cervix cancer HeLa cell, human uterine sarcoma MES-SA cell, human stomach cancer SNU-16 cell, human non-small cell lung cancer NCI-H2126 cell, human EGFRT790M mutation-positive non-small cell lung cancer NCI-H1975 cell, human small cell lung cancer NCI-H82 cell, human large cell lung cancer NCI-H460 cell, human colon cancer HCT116 cell, human glioma U-87 MG cell, human pancreatic cancer BxPC-3 cell, human liver cancer HLF cell, human bile duct cancer HuCCT1 cell, human renal cell cancer 786-O cell, and human fibrosarcoma HT1080 cell is shown in IC50 value in Table 2.

A further test addresses BRD4 protein (Homo sapiens (Human), UniProt O60885). Description: BRD4 protein degradation inducing action in LNCaP cells (immunofluorescence, 6 hr). The class given is cell-based. As to conditions: anti-BRD4 fluorescence intensity. The procedure: The degradation inducing action of the compound of the present invention on BRD4 proteins in cancer cells was evaluated in vitro using human prostate cancer LNCaP cells. LNCaP cells were suspended in 10% FBS/RPMI1640, seeded in a 96 well Cell carrier plate (Perkin Elmer) and cultured at 5% CO2, 37° C. overnight. A test compound dissolved in DMSO was diluted with 10% FBS/RPMI1640 and added and the cells were further cultured for 6 hr. After culturing, the cells were immobilized with 4% para-formaldehyde/PBS and further subjected to a permeation treatment with 0.25% Triton X-100/PBS. Thereafter, the cells were blocked with 10% BSA/PBS, Anti-BRD4 (Sigma-Aldrich) solution was added and the cells were incubated at 4° C. overnight. Furthermore, Goat anti-Rabbit IgG(H+L) Cross-Adsorbed Secondary Antibody, Alexa Fluor 546 (Thermo Fisher Scientific) solution, 0.5 μg/mL Hoechst 33342 (Sigma-Aldrich), and 14 μM Acti-Stain 555 Fluorescent Phalloidin (Cytoskeleton) were added. After incubation for 1 hr, BRD4 protein amount was measured by Operetta (Perkin Elmer) as fluorescence intensity (excitation: 560 nm, emission: 572 nm). The BRD4 protein degradation inducing activity of the compound of the present invention in LNCaP cells is shown in DC50 value in Table 3. The DC50 value is a concentration of the compound showing 50% fluorescence intensity when the fluorescence intensity thereof under compound untreated condition is 100%. It was calculated from the straight line connecting the fluorescence intensity at two points enclosing the 50% fluorescence intensity and the compound concentration.

SMILES strings stand for the structures.

As to `Cc1sc2c(c1C)C(c1ccc(-c3ccc(C(=O)NCc4ccc(S(=O)(=O)Nc5ccc(C)c6c(C#N)c[nH]c56)cc4)cc3)cc1)=N[C@@H](CC(=O)NCCO)c1nnc(C)n1-2` [Example 37, N-({4-[(3-cyano-4-methyl-1H-indol-7-yl)sulfamoyl]phenyl}methyl)-4′-[(6S)-6-{2-[(2-hydroxyethyl)amino]-2-oxoethyl}-2,3,9-trimethyl-6H-thieno[3,2-f][1,2,4]triazolo[4,3-a][1,4]diazepin-4-yl][1,1′-biphenyl]-4-carboxamide], in test [1], it took 3000 pM to reach half-maximal inhibition (IC50). The same compound displayed a half-maximal degradation concentration (DC50) at BRD4 protein of 1400 pM.

`Cc1sc2c(c1C)C(c1ccc(-c3ccc(C(=O)NCc4ccc(S(=O)(=O)Nc5ccc(C)c6c(C#N)c[nH]c56)cc4)cc3)cc1)=N[C@@H](CC(=O)N(C)C)c1nnc(C)n1-2` [Example 38, N-({4-[(3-cyano-4-methyl-1H-indol-7-yl)sulfamoyl]phenyl}methyl)-4′-{(6S)-6-[2-(dimethylamino)-2-oxoethyl]-2,3,9-trimethyl-6H-thieno[3,2-f][1,2,4]triazolo[4,3-a][1,4]diazepin-4-yl}[1,1′-biphenyl]-4-carboxamide] had an IC50 in test [1] of 5800 pM. The compound further returned a DC50 at BRD4 protein of 5600 pM.

In turn, `COC(=O)C[C@@H]1N=C(c2ccc(-c3ccc(C(=O)NCCc4ccc(S(=O)(=O)Nc5ccc(C)c6c(C#N)c[nH]c56)cc4)c(F)c3)cc2)c2c(sc(C)c2C)-n2c(C)nnc21` [Example 40, methyl [(6S)-4-{4′-[(2-{4-[(3-cyano-4-methyl-1H-indol-7-yl)sulfamoyl]phenyl}ethyl)carbamoyl]-3′-fluoro[1,1′-biphenyl]-4-yl}-2,3,9-trimethyl-6H-thieno[3,2-f][1,2,4]triazolo[4,3-a][1,4]diazepin-6-yl]acetate] yielded an IC50 in test [1] of 420 pM. The compound further displayed a DC50 at BRD4 protein of 190 pM.

Regarding `COC(=O)C[C@@H]1N=C(c2ccc(-c3ccc(C(=O)NCCc4ccc(S(=O)(=O)Nc5ccc(C)c6c(C#N)c[nH]c56)cc4)c(Cl)c3)cc2)c2c(sc(C)c2C)-n2c(C)nnc21` [Example 41, methyl [(6S)-4-{3′-chloro-4′-[(2-{4-[(3-cyano-4-methyl-1H-indol-7-yl)sulfamoyl]phenyl}ethyl)carbamoyl][1,1′-biphenyl]-4-yl}-2,3,9-trimethyl-6H-thieno[3,2-f][1,2,4]triazolo[4,3-a][1,4]diazepin-6-yl]acetate], 1100 pM corresponded to half-maximal inhibition in test [1] (IC50). Moreover, it took 410 pM to reach half-maximal degradation on BRD4 protein (DC50).

As to `COC(=O)C[C@@H]1N=C(c2ccc(-c3ccc(C(=O)NCc4ccc(S(=O)(=O)Nc5ccc(C)c6c(C#N)c[nH]c56)cc4)cc3F)cc2)c2c(sc(C)c2C)-n2c(C)nnc21` [Example 45, methyl [(6S)-4-{4′-[({4-[(3-cyano-4-methyl-1H-indol-7-yl)sulfamoyl]phenyl}methyl)carbamoyl]-2′-fluoro[1,1′-biphenyl]-4-yl}-2,3,9-trimethyl-6H-thieno[3,2-f][1,2,4]triazolo[4,3-a][1,4]diazepin-6-yl]acetate], the IC50 in test [1] is 220 pM. The compound also showed a DC50 at BRD4 protein of 190 pM.

Compound `COC(=O)C[C@@H]1N=C(c2ccc(-c3ccc(C(=O)NCCc4ccc(S(=O)(=O)Nc5ccc(C)c6c(C#N)c[nH]c56)cc4)cc3Cl)cc2)c2c(sc(C)c2C)-n2c(C)nnc21` [Example 48, methyl [(6S)-4-{2′-chloro-4′-[(2-{4-[(3-cyano-4-methyl-1H-indol-7-yl)sulfamoyl]phenyl}ethyl)carbamoyl][1,1′-biphenyl]-4-yl}-2,3,9-trimethyl-6H-thieno[3,2-f][1,2,4]triazolo[4,3-a][1,4]diazepin-6-yl]acetate] came in with an IC50 in test [1] of 490 pM. The DC50 on BRD4 protein was 300 pM.

In the case of `COC(=O)C[C@@H]1N=C(c2ccc(-c3ccc(C(=O)NCc4ccc(S(=O)(=O)Nc5ccc(C)c6c(C#N)c[nH]c56)cc4)c(C)c3)cc2)c2c(sc(C)c2C)-n2c(C)nnc21` [Example 50, methyl [(6S)-4-{4′-[({4-[(3-cyano-4-methyl-1H-indol-7-yl)sulfamoyl]phenyl}methyl)carbamoyl]-3′-methyl[1,1′-biphenyl]-4-yl}-2,3,9-trimethyl-6H-thieno[3,2-f][1,2,4]triazolo[4,3-a][1,4]diazepin-6-yl]acetate], in test [1], the IC50 came to 230 pM. At BRD4 protein, this compound displayed a DC50 of 130 pM.

Take `COC(=O)C[C@@H]1N=C(c2ccc(-c3ccc(C(=O)NCc4ccc(S(=O)(=O)Nc5ccc(C)c6c(C#N)c[nH]c56)cc4)c(OC)c3)cc2)c2c(sc(C)c2C)-n2c(C)nnc21` [Example 52, methyl [(6S)-4-{4′-[({4-[(3-cyano-4-methyl-1H-indol-7-yl)sulfamoyl]phenyl}methyl)carbamoyl]-3′-methoxy[1,1′-biphenyl]-4-yl}-2,3,9-trimethyl-6H-thieno[3,2-f][1,2,4]triazolo[4,3-a][1,4]diazepin-6-yl]acetate]: the IC50 in test [1] amounted to 550 pM. On BRD4 protein, the DC50 was found to be 300 pM.

`COC(=O)C[C@@H]1N=C(c2ccc(-c3ccc(C(=O)NCc4ccc(S(=O)(=O)Nc5ccc(C)c6c(C#N)c[nH]c56)cc4)cc3)cc2)c2c(sc(CO)c2C)-n2c(C)nnc21` [Example 55, methyl [(6S)-4-{4′-[({4-[(3-cyano-4-methyl-1H-indol-7-yl)sulfamoyl]phenyl}methyl)carbamoyl][1,1′-biphenyl]-4-yl}-2-(hydroxymethyl)-3,9-dimethyl-6H-thieno[3,2-f][1,2,4]triazolo[4,3-a][1,4]diazepin-6-yl]acetate] gave an IC50 in test [1] of 3000 pM. The compound also yielded a DC50 on BRD4 protein of 1400 pM.

The compound `COC(=O)C[C@@H]1N=C(c2ccc(-c3ccc(C(=O)NCc4ccc(S(=O)(=O)Nc5ccc(C)c6c(C#N)c[nH]c56)cc4)s3)cc2)c2c(sc(C)c2C)-n2c(C)nnc21` [Example 59, methyl [(6S)-4-(4-{5-[({4-[(3-cyano-4-methyl-1H-indol-7-yl)sulfamoyl]phenyl}methyl)carbamoyl]thiophen-2-yl}phenyl)-2,3,9-trimethyl-6H-thieno[3,2-f][1,2,4]triazolo[4,3-a][1,4]diazepin-6-yl]acetate] registered a half-maximal inhibitory concentration (IC50) in test [1] of 230 pM. Half-maximal degradation at BRD4 protein (DC50) was put at 220 pM.

Consider `COC(=O)C[C@@H]1N=C(c2ccc(-c3ccc4cc(C(=O)NCc5ccc(S(=O)(=O)Nc6ccc(C)c7c(C#N)c[nH]c67)cc5)sc4c3)cc2)c2c(sc(C)c2C)-n2c(C)nnc21` [Example 62, methyl [(6S)-4-(4-{2-[({4-[(3-cyano-4-methyl-1H-indol-7-yl)sulfamoyl]phenyl}methyl)carbamoyl]-1-benzothiophen-6-yl}phenyl)-2,3,9-trimethyl-6H-thieno[3,2-f][1,2,4]triazolo[4,3-a][1,4]diazepin-6-yl]acetate], for which the IC50 in test [1] turned out to be 970 pM. The DC50 at BRD4 protein turned out to be 640 pM.

For `Cc1sc2c(c1C)C(c1ccc(-c3ccc(C(=O)NCc4ccc(S(=O)(=O)Nc5ccc(C)c6c(C#N)c[nH]c56)cc4)cc3)cc1)=N[C@@H](CC(=O)OC(C)(C)C)c1nnc(C)n1-2` [Example 63, t-butyl [(6S)-4-{4′-[({4-[(3-cyano-4-methyl-1H-indol-7-yl)sulfamoyl]phenyl}methyl)carbamoyl][1,1′-biphenyl]-4-yl}-2,3,9-trimethyl-6H-thieno[3,2-f][1,2,4]triazolo[4,3-a][1,4]diazepin-6-yl]acetate], in test [1], the IC50 came out at 450 pM. Also, the 50% degradation concentration (DC50) at BRD4 protein was 230 pM.

`Cc1sc2c(c1C)C(c1ccc(-c3ccc(C(=O)NCCc4ccc(S(=O)(=O)Nc5ccc(C)c6c(C#N)c[nH]c56)cc4)cc3)cc1)=N[C@@H](CC(=O)OC(C)(C)C)c1nnc(C)n1-2` [Example 64, t-butyl [(6S)-4-{4′-[(2-{4-[(3-cyano-4-methyl-1H-indol-7-yl)sulfamoyl]phenyl}ethyl)carbamoyl][1,1′-biphenyl]-4-yl}-2,3,9-trimethyl-6H-thieno[3,2-f][1,2,4]triazolo[4,3-a][1,4]diazepin-6-yl]acetate] yielded an IC50 in test [1] of 250 pM. The DC50 at BRD4 protein was 130 pM.
